Data on one compound can be found in patent publication US9862684B2, “Modulation of K2P channels” (The Regents of the University of California, priority 2013, dated 2018).

One series can be described thus: Solubility (remarks). It is filed as physicochemical.
For another series, the target named is T1, K2P2.1 (TREK-1) G137I (Mus musculus, UniProt P97438, G152I).
T1 construct: expressed in transfected cells; host or cells: Xenopus oocytes
T1 sequence (P97438 1-411 isoform P97438-2 G137I): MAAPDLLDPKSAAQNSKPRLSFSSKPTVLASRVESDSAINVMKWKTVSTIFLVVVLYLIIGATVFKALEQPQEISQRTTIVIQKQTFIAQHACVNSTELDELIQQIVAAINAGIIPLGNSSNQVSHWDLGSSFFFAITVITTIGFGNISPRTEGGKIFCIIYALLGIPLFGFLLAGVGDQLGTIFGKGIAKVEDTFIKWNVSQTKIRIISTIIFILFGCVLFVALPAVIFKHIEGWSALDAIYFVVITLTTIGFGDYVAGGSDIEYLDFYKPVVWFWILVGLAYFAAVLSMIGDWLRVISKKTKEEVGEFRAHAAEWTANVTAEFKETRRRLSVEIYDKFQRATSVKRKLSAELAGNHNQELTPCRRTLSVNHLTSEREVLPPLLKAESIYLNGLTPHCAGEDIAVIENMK
In words: Two-electrode voltage clamp, Xenopus oocytes, C-type gate mutant G137I. It is filed as cell-based, Murine. On the procedure:
I-V curves were measured by two-electrode voltage clamp of Xenopus oocytes in b, 90 mM [K^+]o. or c-e, 2 mM [K^+]o. […] Data (were measured at 20 mV (90 mM [K^+]o) or 0 mV (2 mM [K^+]o), normalized to basal channel activity, and fitted to the Hill equation. Error bars indicate s.e., n≧6, N≧2.
Murine K2P channels were cloned into pGEMHE/pMO {Bagriantsev, 2011}, IRES-GFP (Invitrogen), or pYES2-MET25 (high copy 2μ, URA3) {Minor, 1999} for expression in oocytes, HEK-293T cells, and yeast, respectively, using standard molecular biology procedures, and verified by DNA sequencing.
Two-electrode voltage clamp recordings were performed from defolliculated stage V-VI Xenopus oocytes 24-48 hours after injection with 0.015-6.0 ng cRNA, using microelectrodes (0.3-3.0 MΩ) filled with 3M KCl. Data was acquired using the GeneClamp 500B (MDS Analytical Technologies) amplifier controlled by the pClamp software (Molecular Devices), and digitized at 1 kHz using Digidata 1332A (MDS Analytical Technologies). Recording solutions (mM): 2K (96 NaCl, 2 KCl, 1.8 CaCl2, 2 MgCl2), 90K (90 KCl, 8 NaCl, 1.8 CaCl2, 2 MgCl2), were buffered 5 mM HEPES pH 7.4. For K2P recordings, currents we elicited by a 1 second long ramp from −150 to +50 mV from a holding potential of −80 mV (2K), or −100 to +50 mV from a holding potential of 0 mV (90K). […]
Background: Two-electrode voltage clamp is typically applied to oocytes expressing channels or transporters.

For the next series, the target named is T2, Kv7.2 (KCNQ2) (Homo sapiens, UniProt O43526).
T2 construct: expressed in transfected cells; host or cells: Xenopus oocytes
Nature of the series: Two-electrode voltage clamp, Xenopus oocytes expressing Kv7.2 (KCNQ2). Type of series: cell-based. As to conditions: ML67-33 at 100 μM; ML67 concentration not stated. The procedure: FIG. 12 Exemplar I-V curves showing the effect of 100 μM ML67-33 Kv7.2 (KCNQ2) measured by two-electrode voltage clamp in Xenopus oocytes in 2 mM [K^+]o pH 7.4. Currents were elicited by a step protocol from −120 to 60 mV, in 20 mV increments, from a holding potential of −80 mV.
Two-electrode voltage clamp recordings were performed from defolliculated stage V-VI Xenopus oocytes 24-48 hours after injection with 0.015-6.0 ng cRNA, using microelectrodes (0.3-3.0 MΩ) filled with 3M KCl. Data was acquired using the GeneClamp 500B (MDS Analytical Technologies) amplifier controlled by the pClamp software (Molecular Devices), and digitized at 1 kHz using Digidata 1332A (MDS Analytical Technologies). Recording solutions (mM): 2K (96 NaCl, 2 KCl, 1.8 CaCl2, 2 MgCl2), 90K (90 KCl, 8 NaCl, 1.8 CaCl2, 2 MgCl2), were buffered 5 mM HEPES pH 7.4. For K2P recordings, currents we elicited by a 1 second long ramp from −150 to +50 mV from a holding potential of −80 mV (2K), or −100 to +50 mV from a holding potential of 0 mV (90K). For KCNQ2 recordings, currents were elicited by a step protocol from −120 to 60 mV, in 20 mV increments, from a holding potential of −80 mV. Patch-clamp recordings from HEK-293T cells were performed using microelectrodes (2-3 MΩ) filled with 1M KCl. Data was acquired using the Axopatch 200B amplifier controlled by pClamp software, and digitized at 1 kHz using Digidata 1332A. Recording solutions (mM): intracellular (145 KCl, 5 EGTA, 3 MgCl2,) extracellular (150 NaCl, 5 KCl, 3 MgCl2, 1 CaCl2) were buffered with 5 mM HEPES pH 7.2 and 7.4, respectively. Currents were elicited by a 1 second long ramp from −150 to +50 mV from a holding potential of −80 mV. Data were fitted with a modified Hill's equation: I=Imin+(Imax−Imin)/(1+10^((Log EC50−Log [C])*H)), where Imax and Imin are maximal and minimal current values, respectively, EC50 is a half-maximal effective concentration of the compound, and H is the Hill coefficient.

In the case of `CC1(C)c2cc(Cl)ccc2N(CCc2nnn[nH]2)c2ccc(Cl)cc21` [ML67-33, 2,7-dichloro-9,9-dimethyl-10-[2-(1H-tetrazol-5-yl)ethyl]acridine], the “solubility (in words)” value in the series “Solubility (remarks)” is “favorable solubility properties”. Moreover, on K2P2.1 (TREK-1) G137I, the “response to ML67-33 activation (in words)” value is recorded as “completely resistant”. In addition, the “Emax (fold) at 150 μM” value on K2P2.1 (TREK-1) G137I (at 150 μM) was found to be 0.9 ± 0.1 at 150 μM fold. In addition, the “effect on Kv7.2 (KCNQ2) (in words)” value on Kv7.2 (KCNQ2) was “no effect”.
